In patent publication US8785416B2, “Sulphated disaccharides for the treatment of neurodegenerative and/or neurovascular diseases” (Bioiberica, S.A., priority 2009, dated 2014):

Tests used:
[1] = tested on: SH-SY5Y human neuroblastoma cells; assay: Neuroprotection against cell death induced by rotenone plus oligomycin-A (oxidative stress), LDH release; format: cell-based
Method: An oxidative stress model consists of blocking mitochondrial respiratory chain complexes I and V by means of the combination of rotenone plus oligomycin-A, respectively. As a result of the interruption of the mitochondrial respiratory chain, the cell is unable to continue producing ATP, and the free radicals are generated exceeding the capacity of the cell to neutralize them, and as a result, cell death occurs.
SH-SY5Y human neuroblastoma cells were cultured in a monolayer in 75 cm^2 flasks with a vented stopper. The culture medium used was Dulbecco's Modified Eagle's Medium (DMEM) with a high glucose content ([…]) and supplemented with 10% foetal bovine serum, 2 mM L-Glutamine, 50 IU/mL penicillin and 50 μg/mL streptomycin.
The cell cultures were maintained in an incubator at 37° C. in a humid environment, with 5% CO2 and 95% air. The culture medium was changed twice a week, performing 1:4 passages when the cells reached 70-80% confluence. To perform the passages, the cells were detached by means of their treatment with trypsin-EDTA.
For the cell viability assays, the cells were seeded in sterile 48-well plates at a density of 80,000 cells/well. The experiments were performed 24-48 hours after their seeding.
To evaluate the neuroprotective effect of the compounds, the SH-SY5Y cells were preincubated for 24 hours with the compound under study, and subsequently incubated for 24 hours with the compound under study in the presence of the toxic substances (a combination of 10 μM rotenone and 1 μM oligomycin-A); at the end of this period the cell viability was evaluated by quantifying the release of the LDH enzyme.
The assessment of this enzyme was performed by means of a commercial kit (Cytotoxicity detection kit-LDH; Roche) following the instructions of the company. The samples were colorimetrically analyzed in a plate reader (Labsystems iEMS Reader MF), using the suitable filter at 490-600 nm and obtaining the absorbance values.
The % of cell death was defined as the % of LDH released into the extracellular medium with respect to the total (sum of intra- and extracellular LDH).
Compounds Ic and Ib were studied at four concentrations (0.001, 0.003, 0.01 and 0.03 μM), chondroitin sulphate (supplied by Bioibérica, S.A.) was assayed at two concentrations (10 and 60 μM) and trolox (Sigma Aldrich) was assayed at two concentrations (30 and 300 μM). The experiment also included the baseline (SH-SY5Y cells in the absence of compound and of toxic stimulus) and the control (SH-SY5Y cells cultured in the absence of compound and in the presence of the toxic stimulus rotenone plus oligomycin).

[2] = tested on: mice (photothrombotic stroke model); assay: Experimental photothrombotic stroke model, cortical infarction volume; format: in vivo, mouse; conditions: 10 mg/kg i.p.
Description: Neuronal death occurs during brain ischemia or stroke; therefore a medicament with a neuroprotective profile can have a therapeutic potential in patients who have suffered from a cerebral infarction or stroke. To explore if the compounds of formula (I) can offer neuroprotection in vivo, the experimental photothrombotic stroke model was used. In the photothrombosis model a focal cerebral infarction is induced in the area of the cortex illuminated by means of a cold light source in mice previously treated with the Rose Bengal stain; this stain is photosensitive and produces free radicals when it is stimulated with light, causing lesions in the surrounding vascular endothelium, which causes platelet aggregation and the formation of thrombi in the microvessels of the cerebral cortex (Non-invasive induction of focal cerebral ischemia in mice by photothrombosis of cortical microvessels: characterization of inflammatory responses, M. Schroeter et al., J Neurosci Methods. 117(1), 43-49. (2002); Melatonin reduces infarction volume in a photothrombotic stroke model in the wild-type but not cyclooxygenase-1-gene knockout mice, L Y. Zhou et al., J Pineal Res. 41(2), 150-156. (2006)).
Adult male Swiss breed mice from Harlan laboratories (Barcelona), with a weight of about 30 g, were used. Once anaesthetised with isoflurane, the mice were placed in a stereotaxic frame, maintaining their rectal temperature at 37±0.5° C. during the entire procedure. Subsequently, the cranium was exposed by means of a dorsomedial incision in the skin and the periosteum was removed. By means of the use of a micromanipulator, a fibre-optic cable was placed to emit a beam of light of 1.9 mm in diameter and 3000° K, connected to a cold light source (Zeiss KL 1500), in 2.0 mm posterior and 3.0 mm lateral to Bregma on the right side. According to the mouse brain atlas (Franklin and Paxinos, 1986), the sensitive-motor cortex, the putamen caudate and the hippocampus are right below this stereotaxic position. Then, the mice were injected with 1 mg of the Rose Bengal photosensitive probe and the brain was illuminated through the intact cranium for 30 minutes. Finally, the skin was sutured and the animals were left in a cage until their recovery under observation.
The animals were sacrificed by decapitation 72 hours after the ischemia. […]
To quantify the cortical cerebral infarction volume, the sections stained with TTC were scanned on both their rostral and caudal part and by means of the image analysis programme ImageJ 1.41 (National Institutes of Health, Bethesda, Md., USA) the area of the ipsi-, contralateral cortex and the cerebral infarction of each of the sections scanned, both in the caudal and rostral part, was quantified. Subsequently, the cerebral infarction volume was calculated. […]

methyl 2-acetamido-2-deoxy-3-O-(β-D-glucopyranosyluronic acid)-4,6-di-O-sulpho-α-D-glucopyranoside, trisodium salt [compound Ic]
maximum statistically significant protection against cell death (% of released LDH) induced by rotenone and oligomycin ([1]; 0.03 μM, 24 h preincubation + 24 h with 10 μM rotenone and 1 μM oligomycin-A): 47%
protective effect compared with chondroitin sulphate and trolox ([1]; Ic, Ib at 0.001-0.03 μM vs chondroitin sulphate 10 and 60 μM, trolox 30 and 300 μM): more effective than chondroitin sulphate and than trolox
cortical infarction volume ([2]; 24 h and 1 h before ischemia and twice a day after, 72 hours, saline 6.1±2.18%, mean and standard deviation): 2.8±1.95%
protection (reduction of cortical infarction volume) ([2]; p<0.001 vs saline): 53%
